# Results as given in patent US20070224167A1, “Novel HCV inhibitor combinations and methods” (priority 2006, published 2007).
# “Also recorded” adds a separate entry of the source.
# System: replicons containing HCV NS3 protease mutations T54A, A156S, A156T, V170A
# Experiment: HCV-796 cross-resistance study, 3-day replicon assay on replicons with NS3 protease resistance mutations
# Format: cell-based
# Conditions: V170A vs wild type
# Protocol: Replicon cells are seeded at ˜5000 cells/well in 96-well collagen I-coated Biocoat plates (Becton Dickinson). Twenty-four hrs post-seeding, inhibitors diluted in DMSO are added to replicon cells (Huh-7 cells). The final concentrations of DMSO and fetal bovine serum are 1% and 10%, respectively. SCH 503034 is serially diluted at 1:2 for a 10-point titration. To each concentration of the SCH 503034, the second inhibitor, HCV-796 or rhIFN-α2b control is titrated in. IFN-α is serially diluted at 1:3, whereas HCV RNA polymerase inhibitor, HCV-796, is serially diluted at 1:2. […] All samples are tested in triplicate. Media and inhibitors are refreshed daily for 3 days at which point the cells are washed with PBS and lysed in 1× cell lysis buffer (Ambion cat #8721). The replicon RNA level is measured using real time PCR (Taqman assay) The amplicon is located in 5B. The PCR primers are: 5B.2F, ATGGACAGGCGCCCTGA (SEQ ID NO:1) and 5B.2R, […] (SEQ ID NO:2). The probe sequence is FAM-labeled CACGCCATGCGCTGCGG (SEQ ID NO:3). GAPDH RNA is used as an endogenous control and is amplified in the same reaction as NS5B (multiplex PCR) using primers and VIC-labeled probe recommended by the manufacturer (PE Applied Biosystem). […]
smiles,measurement,value
"CNC(=O)c1c(-c2ccc(F)cc2)oc2cc(N(CCO)S(C)(=O)=O)c(C3CC3)cc12 [HCV-796, 5-cyclopropyl-2-(4-fluoro-phenyl)-6-[(2-hydroxy-ethyl)-methanesulfonyl-amino]-benzofuran-3-carboxylic acid methylamide]",Activity of HCV-796 on SCH 503034 resistant replicon cell lines,identical to that observed against the wild-type replicon; also recorded: active
